Measured values reported in ChEMBL document CHEMBL1142493, “Structure-based approach to the development of potent and selective inhibitors of dihydrofolate reductase from cryptosporidium” (J Med Chem, 2008).

Test: Inhibition of Cryptosporidium hominis dihydrofolate reductase expressed in Escherichia coli by spectrophotometry

Structure (SMILES): COc1cc(-c2c(C)cccc2C)cc(C(C)C#Cc2c(C)nc(N)nc2N)c1 (racemic)
- IC50: 2.1 nM

Structure (SMILES): COc1cc(C(C)C#Cc2c(C)nc(N)nc2N)ccc1-c1c(C(C)C)cccc1C(C)C (racemic)
- IC50: 16 nM
